Target: Tie-2 (Homo sapiens, UniProt Q02763)
Assay: Tie-2 tyrosine kinase activity assay (luciferase/luciferin ATP consumption with pEY substrate, or 33P-ATP incorporation)
Type: biochemical
Details: human enzyme Tie-2
How it was run: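 Values are IC50 categories (A <50 nM to D ≥10,000 nM), with Ki obtainable by fitting rates to a tight-binding model. Assay formats: 33P-ATP phosphate transfer to adsorbed generic substrate counted by scintillation, or luciferase-detected ATP depletion using pEY.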

Chain of Tie-2 (Q02763 23-1124): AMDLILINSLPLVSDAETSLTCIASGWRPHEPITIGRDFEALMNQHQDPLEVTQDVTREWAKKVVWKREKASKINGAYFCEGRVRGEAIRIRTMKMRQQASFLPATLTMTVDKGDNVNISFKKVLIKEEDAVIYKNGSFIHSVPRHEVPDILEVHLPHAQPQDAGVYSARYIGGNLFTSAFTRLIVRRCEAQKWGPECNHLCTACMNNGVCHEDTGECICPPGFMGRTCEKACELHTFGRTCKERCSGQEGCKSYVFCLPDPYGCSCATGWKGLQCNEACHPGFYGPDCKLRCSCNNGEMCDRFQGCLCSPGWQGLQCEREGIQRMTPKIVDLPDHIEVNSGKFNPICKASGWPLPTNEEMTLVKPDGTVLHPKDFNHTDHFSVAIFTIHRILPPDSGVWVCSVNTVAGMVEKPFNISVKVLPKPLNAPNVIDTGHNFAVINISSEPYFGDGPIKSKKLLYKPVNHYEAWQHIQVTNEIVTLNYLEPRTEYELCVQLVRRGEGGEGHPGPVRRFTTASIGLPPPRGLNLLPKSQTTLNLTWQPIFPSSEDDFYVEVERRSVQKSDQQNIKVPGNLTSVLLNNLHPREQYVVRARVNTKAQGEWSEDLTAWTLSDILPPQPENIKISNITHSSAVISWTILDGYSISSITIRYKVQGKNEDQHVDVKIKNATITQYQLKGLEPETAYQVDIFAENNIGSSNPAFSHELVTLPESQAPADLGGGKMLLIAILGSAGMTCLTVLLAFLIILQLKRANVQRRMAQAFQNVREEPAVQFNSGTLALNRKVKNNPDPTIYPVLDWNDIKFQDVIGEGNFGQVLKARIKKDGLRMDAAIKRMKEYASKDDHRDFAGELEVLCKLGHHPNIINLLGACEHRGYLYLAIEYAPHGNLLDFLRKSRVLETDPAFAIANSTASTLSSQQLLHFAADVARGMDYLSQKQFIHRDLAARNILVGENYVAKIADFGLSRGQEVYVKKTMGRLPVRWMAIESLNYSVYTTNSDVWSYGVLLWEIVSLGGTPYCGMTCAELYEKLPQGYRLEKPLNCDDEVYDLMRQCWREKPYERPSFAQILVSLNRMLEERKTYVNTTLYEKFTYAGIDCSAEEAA

Row | SMILES | IC50
1 | CC1CN(c2nsnc2OCc2ccncc2)CC(C)N1C(=O)Nc1cccc(C(F)(F)F)c1 (stereo not drawn) [Example 69, 2,6-dimethyl-4-{4-[(pyridin-4-ylmethyl)oxy]-1,2,5-thiadiazol-3-yl}-N-[3-(trifluoromethyl)phenyl]piperazine-1-carboxamide] | 50 to 1000 nM
2 | CCCCNc1cc(COc2nsnc2N2CCNCC2)ccn1 [Example 111, N-butyl-4-{[(4-piperazin-1-yl-1,2,5-thiadiazol-3-yl)oxy]methyl}pyridin-2-amine] | ≥ 10000 nM
3 | O=C(Nc1cc(C(F)(F)F)cc(C(F)(F)F)c1)N1CCN(c2nccnc2OCc2ccnc(Cl)c2)CC1 [Example 84, N-[3,5-bis(trifluoromethyl)phenyl]-4-(3-{[(2-chloropyridin-4-yl)methyl]oxy}pyrazin-2-yl)piperazine-1-carboxamide] | 50 to 1000 nM
4 | O=C(Nc1cc(C(F)(F)F)cc(C(F)(F)F)c1)N1CCN(c2nsnc2OCc2ccnc(Cl)c2)CC1 [Example 83, N-[3,5-bis(trifluoromethyl)phenyl]-4-(4-{[(2-chloropyridin-4-yl)methyl]oxy}-1,2,5-thiadiazol-3-yl)piperazine-1-carboxamide] | 1000 to 10000 nM
5 | C[C@H]1CN(c2nccnc2OCc2ccncc2)CCN1C(=O)Nc1cc(C(F)(F)F)cc(C(F)(F)F)c1 [Example 80, (2S)-N-[3,5-bis(trifluoromethyl)phenyl]-2-methyl-4-{3-[(pyridin-4-ylmethyl)oxy]pyrazin-2-yl}piperazine-1-carboxamide] | < 50 nM
6 | O=C(Nc1cc(C(F)(F)F)cc(C(F)(F)F)c1)N1CCN(c2nsnc2Oc2ccc3[nH]ccc3c2)CC1 [Example 12] | 50 to 1000 nM
7 | O=C(Nc1cccc(C(F)(F)F)c1)N1CCCN(c2nccnc2OCc2ccncc2)CC1 [Example 77, 4-{3-[(pyridin-4-ylmethyl)oxy]pyrazin-2-yl}-N-[3-(trifluoromethyl)phenyl]-1,4-diazepane-1-carboxamide] | 50 to 1000 nM
8 | CNc1cc(COc2nsnc2N2CCNCC2)ccn1 [Example 109, N-methyl-4-{[(4-piperazin-1-yl-1,2,5-thiadiazol-3-yl)oxy]methyl}pyridin-2-amine] | ≥ 10000 nM
9 | O=C(Nc1cccc(C(F)(F)F)c1)N1CCN(c2nccnc2OCc2ccncc2)CC1 [Example 39, 4-{3-[(pyridin-4-ylmethyl)oxy]pyrazin-2-yl}-N-[3-(trifluoromethyl)phenyl]piperazine-1-carboxamide] | < 50 nM
10 | O=C(Nc1cc(C(F)(F)F)cc(C(F)(F)F)c1)N1CCN(c2nsnc2OCc2ccnc(NC3CCCC3)n2)CC1 [Example 128, N-[3,5-bis(trifluoromethyl)phenyl]-4-[4-({[2-(cyclopentylamino)pyrimidin-4-yl]methyl}oxy)-1,2,5-thiadiazol-3-yl]piperazine-1-carboxamide] | 50 to 1000 nM
11 | O=C(Nc1cc(C(F)(F)F)cc(C(F)(F)F)c1)N1CCN(c2nccnc2OCc2ccnc(F)c2)CC1 [Example 89, N-[3,5-bis(trifluoromethyl)phenyl]-4-(3-{[(2-fluoropyridin-4-yl)methyl]oxy}pyrazin-2-yl)piperazine-1-carboxamide] | 50 to 1000 nM

More lines, now with the values ahead:

Row | IC50 | SMILES
12 | < 50 nM | CCc1cc(CC)cc(NC(=O)N2CCN(c3nccnc3OCc3ccnc(N)n3)CC2)c1 [Example 215, 4-(3-{[(2-aminopyrimidin-4-yl)methyl]oxy}pyrazin-2-yl)-N-(3,5-diethylphenyl)piperazine-1-carboxamide]
13 | < 50 nM | CN1CCN(CC(=O)Nc2cc(COc3cccnc3N3CCN(C(=O)Nc4cc(Cl)cc(C(F)(F)F)c4)CC3)ccn2)CC1 [Example 233, N-[3-chloro-5-(trifluoromethyl)phenyl]-4-(3-{[(2-{[(4-methylpiperazin-1-yl)acetyl]amino}pyridin-4-yl)methyl]oxy}pyridin-2-yl)piperazine-1-carboxamide]
14 | < 50 nM | Nc1nccc(COc2nccnc2N2CCN(C(=O)Nc3cc(Cl)cc(Cl)c3)CC2)n1 [Example 217, 4-(3-{[(2-aminopyrimidin-4-yl)methyl]oxy}pyrazin-2-yl)-N-(3,5-dichlorophenyl)piperazine-1-carboxamide]
15 | 1000 to 10000 nM | Nc1nccc(COc2ccccc2N2CCN(C(=O)Nc3ccccc3)CC2)n1 [Example 270, 4-(2-{[(2-aminopyrimidin-4-yl)methyl]oxy}phenyl)-N-phenylpiperazine-1-carboxamide]
16 | < 50 nM | CCc1cccc(NC(=O)N2CCN(c3ncccc3OCc3ccnc(NC(=O)OC)c3)CC2)c1 [Example 161, methyl [4-({[2-(4-{[(3-ethylphenyl)amino]carbonyl}piperazin-1-yl)pyridin-3-yl]oxy}methyl)pyridin-2-yl]carbamate]
17 | < 50 nM | Nc1nccc(COc2cccnc2N2CCN(C(=O)Nc3cc(C(F)(F)F)ccc3Cl)CC2)n1 [Example 192, 4-(3-{[(2-aminopyrimidin-4-yl)methyl]oxy}pyridin-2-yl)-N-[2-chloro-5-(trifluoromethyl)phenyl]piperazine-1-carboxamide]
18 | 50 to 1000 nM | Nc1nccc(COc2nsnc2N2CCN(C(=O)Nc3cc(C(F)(F)F)ccc3Cl)CC2)n1 [Example 262, 4-(4-{[(2-aminopyrimidin-4-yl)methyl]oxy}-1,2,5-thiadiazol-3-yl)-N-[2-chloro-5-(trifluoromethyl)phenyl]piperazine-1-carboxamide]
19 | 50 to 1000 nM | COC(=O)Nc1cc(COc2cccnc2N2CCN(C(=O)Nc3cccc(OC)c3)CC2)ccn1 [Example 165, methyl {4-[({2-[4-({[3-(methyloxy)phenyl]amino}carbonyl)piperazin-1-yl]pyridin-3-yl}oxy)methyl]pyridin-2-yl}carbamate]
20 | 1000 to 10000 nM | Nc1nccc(COc2nsnc2N2CCN(C(=O)Nc3ccc(F)c(Cl)c3)CC2)n1 [Example 253, 4-(4-{[(2-aminopyrimidin-4-yl)methyl]oxy}-1,2,5-thiadiazol-3-yl)-N-(3-chloro-4-fluorophenyl)piperazine-1-carboxamide]
21 | ≥ 10000 nM | Nc1nccc(COc2nsnc2N2CCN(C(=O)Nc3ccccc3)CC2)n1 [Example 230, 4-(4-{[(2-aminopyrimidin-4-yl)methyl]oxy}-1,2,5-thiadiazol-3-yl)-N-phenylpiperazine-1-carboxamide]
22 | 50 to 1000 nM | CCc1cccc(NC(=O)N2CCN(c3nsnc3OCc3ccnc(N)n3)CC2)c1 [Example 158, 4-(4-{[(2-aminopyrimidin-4-yl)methyl]oxy}-1,2,5-thiadiazol-3-yl)-N-(3-ethylphenyl)piperazine-1-carboxamide]
23 | < 50 nM | CCc1cc(Cl)cc(NC(=O)N2CCN(c3ncccc3OCc3ccnc(NC(=O)CN4CCN(C)CC4)c3)CC2)c1 [Example 198, N-(3-chloro-5-ethylphenyl)-4-(3-{[(2-{[(4-methylpiperazin-1-yl)acetyl]amino}pyridin-4-yl)methyl]oxy}pyridin-2-yl)piperazine-1-carboxamide]
24 | < 50 nM | CN1CCCC(C(=O)Nc2cc(COc3nsnc3N3CCN(C(=O)Nc4cc(C(F)(F)F)cc(C(F)(F)F)c4)CC3)ccn2)C1 (stereo not drawn) [Example 143, N-[3,5-bis(trifluoromethyl)phenyl]-4-(4-{[(2-{[(1-methylpiperidin-3-yl)carbonyl]amino}pyridin-4-yl)methyl]oxy}-1,2,5-thiadiazol-3-yl)piperazine-1-carboxamide]

From patent US8013156B2 (Exelixis, Inc., priority 2003, dated 2011)
